Columns and labels:
Assay in all cases: relative viability (nuclei count vs DMSO), 5 days (fraction); higher = more cells survive
[1] = test system: NCI-H2085
Procedure, shortened: (§1)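 Values are medians from duplicate plates. Each reflects relative viability, defined as the nuclei count of treated wells over that of vehicle wells. Lung cancer cell lines in 1536-well plates were pin-tool dosed one day after seeding with one drug alone or with a fixed anchor-drug dose plus five library-drug doses (not always all listed) in √10 steps, then fixed, stained and imaged at 4× after 5 days.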

[2] = test system: NCI-H2126
Procedure, shortened: as §1

[3] = test system: NCI-H1993
Procedure, shortened: as §1

[4] = test system: NCI-H2023
Procedure, shortened: as §1

[5] = test system: PC-14
Procedure, shortened: as §1

[6] = test system: NCI-H1650
Procedure, shortened: as §1

[7] = test system: NCI-H358
Procedure, shortened: as §1

[8] = test system: BEN
Procedure, shortened: as §1

[9] = test system: H3255
Procedure, shortened: as §1

[10] = test system: NCI-H2347
Procedure, shortened: as §1

[11] = test system: LXF-289
Procedure, shortened: as §1

[12] = test system: NCI-H647
Procedure, shortened: as §1

[13] = test system: NCI-H2009
Procedure, shortened: as §1

[14] = test system: NCI-H1563
Procedure, shortened: as §1

[15] = test system: NCI-H322M
Procedure, shortened: as §1

[16] = test system: EMC-BAC-2
Procedure, shortened: as §1

[17] = test system: LCLC-97TM1
Procedure, shortened: as §1

[18] = test system: NCI-H1915
Procedure, shortened: as §1

[19] = test system: HOP-62
Procedure, shortened: as §1

[20] = test system: SW 1573
Procedure, shortened: as §1

[21] = test system: NCI-H727
Procedure, shortened: as §1

[22] = test system: SK-LU-1
Procedure, shortened: as §1

[23] = test system: NCI-H661
Procedure, shortened: as §1

COc1cc(N2CCC(C(N)=O)CC2)ccc1Nc1nc(N)c(Cl)c(Nc2ccccc2S(=O)(=O)C(C)C)n1 [HG-5-88-01] + CS(=O)(=O)CCNCc1ccc(-c2ccc3ncnc(Nc4ccc(OCc5cccc(F)c5)c(Cl)c4)c3c2)o1 [Lapatinib] (partner 2 µM)
relative viability ([1]; first compound 0.04 µM): 0.718
relative viability ([1]; first compound 0.1265 µM): 0.86
relative viability ([1]; first compound 0.4 µM): 0.761
relative viability ([1]; first compound 1.265 µM): 0.65
relative viability ([1]; first compound 4 µM): 0.557
relative viability ([2]; first compound 0.04 µM): 0.649
relative viability ([2]; first compound 0.1265 µM): 0.712
relative viability ([2]; first compound 0.4 µM): 0.706
relative viability ([2]; first compound 1.265 µM): 0.726
relative viability ([2]; first compound 4 µM): 0.45
relative viability ([3]; first compound 0.04 µM): 0.713
relative viability ([3]; first compound 0.1265 µM): 0.853
relative viability ([3]; first compound 0.4 µM): 0.843
relative viability ([3]; first compound 1.265 µM): 0.79
relative viability ([3]; first compound 4 µM): 0.788
relative viability ([4]; first compound 0.04 µM): 0.926
relative viability ([4]; first compound 0.1265 µM): 1.32
relative viability ([4]; first compound 0.4 µM): 0.573
relative viability ([4]; first compound 1.265 µM): 0.708
relative viability ([4]; first compound 4 µM): 0.335
relative viability ([5]; first compound 0.04 µM): 0.358
relative viability ([5]; first compound 0.1265 µM): 0.307
relative viability ([5]; first compound 0.4 µM): 0.242
relative viability ([5]; first compound 1.265 µM): 0.267
relative viability ([5]; first compound 4 µM): 0.25
relative viability ([6]; first compound 0.04 µM): 0.785
relative viability ([6]; first compound 0.1265 µM): 0.869
relative viability ([6]; first compound 0.4 µM): 0.928
relative viability ([6]; first compound 1.265 µM): 0.799
relative viability ([6]; first compound 4 µM): 0.29
relative viability ([7]; first compound 0.04 µM): 0.451
relative viability ([7]; first compound 0.1265 µM): 0.378
relative viability ([7]; first compound 0.4 µM): 0.307
relative viability ([7]; first compound 1.265 µM): 0.256
relative viability ([7]; first compound 4 µM): 0.304
relative viability ([8]; first compound 0.04 µM): 0.817
relative viability ([8]; first compound 0.1265 µM): 0.743
relative viability ([8]; first compound 0.4 µM): 0.66
relative viability ([8]; first compound 1.265 µM): 0.586
relative viability ([8]; first compound 4 µM): 0.545
relative viability ([9]; first compound 0.04 µM): 0.25
relative viability ([9]; first compound 0.1265 µM): 0.249
relative viability ([9]; first compound 0.4 µM): 0.244
relative viability ([9]; first compound 4 µM): 0.212
relative viability ([10]; first compound 0.04 µM): 1.02
relative viability ([10]; first compound 0.1265 µM): 0.947
relative viability ([10]; first compound 0.4 µM): 0.896
relative viability ([10]; first compound 1.265 µM): 1.01
relative viability ([10]; first compound 4 µM): 0.887
relative viability ([11]; first compound 0.04 µM): 0.913
relative viability ([11]; first compound 0.1265 µM): 0.904
relative viability ([11]; first compound 0.4 µM): 0.883
relative viability ([11]; first compound 1.265 µM): 0.928
relative viability ([11]; first compound 4 µM): 0.867
relative viability ([12]; first compound 0.04 µM): 0.929
relative viability ([12]; first compound 0.1265 µM): 1.23
relative viability ([12]; first compound 1.265 µM): 1.11
relative viability ([12]; first compound 4 µM): 1.21
relative viability ([13]; first compound 0.04 µM): 0.943
relative viability ([13]; first compound 0.1265 µM): 1.01
relative viability ([13]; first compound 0.4 µM): 0.843
relative viability ([13]; first compound 1.265 µM): 0.939
relative viability ([13]; first compound 4 µM): 0.433
relative viability ([14]; first compound 0.04 µM): 0.872
relative viability ([14]; first compound 0.1265 µM): 0.941
relative viability ([14]; first compound 0.4 µM): 1.03
relative viability ([14]; first compound 1.265 µM): 0.882
relative viability ([14]; first compound 4 µM): 1.24
relative viability ([15]; first compound 0.04 µM): 0.583
relative viability ([15]; first compound 0.1265 µM): 0.428
relative viability ([15]; first compound 0.4 µM): 0.492
relative viability ([15]; first compound 1.265 µM): 0.501
relative viability ([15]; first compound 4 µM): 0.485
relative viability ([16]; first compound 0.04 µM): 0.928
relative viability ([16]; first compound 0.1265 µM): 0.93
relative viability ([16]; first compound 0.4 µM): 0.802
relative viability ([16]; first compound 1.265 µM): 0.906
relative viability ([16]; first compound 4 µM): 0.684
relative viability ([17]; first compound 0.04 µM): 0.999
relative viability ([17]; first compound 0.1265 µM): 0.95
relative viability ([17]; first compound 0.4 µM): 0.471
relative viability ([17]; first compound 1.265 µM): 0.683
relative viability ([17]; first compound 4 µM): 0.301
relative viability ([18]; first compound 0.04 µM): 0.958
relative viability ([18]; first compound 0.1265 µM): 1
relative viability ([18]; first compound 0.4 µM): 0.977
relative viability ([18]; first compound 1.265 µM): 1
relative viability ([18]; first compound 4 µM): 0.698
relative viability ([19]; first compound 0.04 µM): 1.1
relative viability ([19]; first compound 0.1265 µM): 1.1
relative viability ([19]; first compound 0.4 µM): 1.05
relative viability ([19]; first compound 1.265 µM): 1.2
relative viability ([19]; first compound 4 µM): 0.893
relative viability ([20]; first compound 0.04 µM): 1.12
relative viability ([20]; first compound 0.1265 µM): 0.86
relative viability ([20]; first compound 0.4 µM): 0.989
relative viability ([20]; first compound 1.265 µM): 1.06
relative viability ([20]; first compound 4 µM): 1.04
relative viability ([21]; first compound 0.04 µM): 0.834
relative viability ([21]; first compound 0.1265 µM): 0.93
relative viability ([21]; first compound 0.4 µM): 0.669
relative viability ([21]; first compound 1.265 µM): 0.583
relative viability ([21]; first compound 4 µM): 0.39
relative viability ([22]; first compound 0.04 µM): 0.947
relative viability ([22]; first compound 0.1265 µM): 0.855
relative viability ([22]; first compound 0.4 µM): 0.787
relative viability ([22]; first compound 1.265 µM): 0.611
relative viability ([22]; first compound 4 µM): 0.737
relative viability ([23]; first compound 0.04 µM): 0.505
relative viability ([23]; first compound 0.1265 µM): 0.518
relative viability ([23]; first compound 0.4 µM): 0.487
relative viability ([23]; first compound 4 µM): 0.542

Reference: the supplement of paper PMC10307832
